Results on 19 compounds are retold here after ChEMBL document CHEMBL1122963, “[3H]Batrachotoxinin A 20 alpha-benzoate binding to voltage-sensitive sodium channels: a rapid and quantitative assay for local anesthetic activity in a variety of drugs” (J Med Chem, 1985).

The target in assay [1] is T1, Sodium channel alpha subunits; brain (Types I, II, III) (Homo sapiens, UniProt P35498+Q99250+Q9NY46). As to conditions: Cavia porcellus; Cerebral cortex; at 10 µM.
Assay [2] deals with T1, Sodium channel alpha subunits; brain (Types I, II, III). As to conditions: Cavia porcellus; Cerebral cortex; at 100 µM.
The target is the same in assay [3]. The assay is described as follows: Inhibition of binding of Batrachotoxinin [3H]BTX-B to high affinity sites on voltage dependent sodium channels in a vesicular preparation from guinea pig cerebral cortex. The format is tissue-based, Cavia porcellus.
Assay [4] shares this target. To be noted: Cavia porcellus; Cerebral cortex; at 10 µM. This is another data set of the same source.

T1 sequence (Q99250 whole entry, looked up, other chains not shown): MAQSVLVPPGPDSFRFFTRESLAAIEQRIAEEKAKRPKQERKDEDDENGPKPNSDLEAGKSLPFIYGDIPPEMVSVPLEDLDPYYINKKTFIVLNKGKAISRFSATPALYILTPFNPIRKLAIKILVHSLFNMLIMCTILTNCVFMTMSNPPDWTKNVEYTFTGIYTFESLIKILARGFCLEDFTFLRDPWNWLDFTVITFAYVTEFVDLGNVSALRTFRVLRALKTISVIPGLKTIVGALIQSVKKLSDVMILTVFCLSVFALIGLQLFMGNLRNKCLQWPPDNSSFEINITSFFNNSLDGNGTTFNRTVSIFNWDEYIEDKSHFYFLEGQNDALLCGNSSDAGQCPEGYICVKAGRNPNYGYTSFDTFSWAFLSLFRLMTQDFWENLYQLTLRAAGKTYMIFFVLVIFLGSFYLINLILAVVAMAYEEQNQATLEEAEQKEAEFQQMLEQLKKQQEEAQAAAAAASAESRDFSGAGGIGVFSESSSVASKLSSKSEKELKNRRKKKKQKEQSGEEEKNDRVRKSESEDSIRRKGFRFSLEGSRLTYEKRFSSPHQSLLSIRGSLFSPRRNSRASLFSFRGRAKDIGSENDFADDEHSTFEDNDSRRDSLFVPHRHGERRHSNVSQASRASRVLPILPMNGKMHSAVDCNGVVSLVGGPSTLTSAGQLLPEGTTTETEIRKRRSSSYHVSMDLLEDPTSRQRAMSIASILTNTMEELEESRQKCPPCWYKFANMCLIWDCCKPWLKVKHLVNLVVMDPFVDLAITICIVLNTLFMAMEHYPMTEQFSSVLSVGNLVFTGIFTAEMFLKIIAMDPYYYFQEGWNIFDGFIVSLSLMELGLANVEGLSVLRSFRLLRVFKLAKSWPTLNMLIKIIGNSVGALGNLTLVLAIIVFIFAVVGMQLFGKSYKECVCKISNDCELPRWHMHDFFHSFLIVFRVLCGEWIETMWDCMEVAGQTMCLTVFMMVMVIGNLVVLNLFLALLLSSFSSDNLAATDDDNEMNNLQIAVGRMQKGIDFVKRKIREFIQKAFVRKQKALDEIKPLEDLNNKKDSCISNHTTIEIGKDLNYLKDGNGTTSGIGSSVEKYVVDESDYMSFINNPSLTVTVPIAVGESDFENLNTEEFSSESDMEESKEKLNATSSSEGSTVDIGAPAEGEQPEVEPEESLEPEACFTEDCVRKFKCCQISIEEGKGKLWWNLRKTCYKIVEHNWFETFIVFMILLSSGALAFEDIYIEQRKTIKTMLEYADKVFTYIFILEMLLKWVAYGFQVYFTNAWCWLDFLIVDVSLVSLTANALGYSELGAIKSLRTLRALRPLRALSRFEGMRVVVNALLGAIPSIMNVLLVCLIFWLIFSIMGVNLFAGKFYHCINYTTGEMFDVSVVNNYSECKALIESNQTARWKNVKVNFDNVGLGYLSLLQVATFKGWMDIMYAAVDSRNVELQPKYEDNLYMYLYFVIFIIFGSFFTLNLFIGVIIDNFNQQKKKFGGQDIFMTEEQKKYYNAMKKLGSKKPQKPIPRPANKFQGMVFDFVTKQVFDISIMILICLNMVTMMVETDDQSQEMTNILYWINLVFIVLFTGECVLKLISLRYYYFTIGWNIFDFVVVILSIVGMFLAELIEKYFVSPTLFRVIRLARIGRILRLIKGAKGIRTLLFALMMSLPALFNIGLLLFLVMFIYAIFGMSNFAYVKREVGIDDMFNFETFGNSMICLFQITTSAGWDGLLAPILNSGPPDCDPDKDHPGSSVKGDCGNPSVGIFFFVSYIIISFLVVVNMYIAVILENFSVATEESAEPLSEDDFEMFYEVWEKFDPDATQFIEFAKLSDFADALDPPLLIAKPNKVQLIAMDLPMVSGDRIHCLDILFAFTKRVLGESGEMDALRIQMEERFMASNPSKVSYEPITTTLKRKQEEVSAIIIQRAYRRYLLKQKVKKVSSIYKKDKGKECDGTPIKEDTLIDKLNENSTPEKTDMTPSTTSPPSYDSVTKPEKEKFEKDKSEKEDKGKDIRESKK
T1 sequence (Q9NY46 whole entry, looked up, other chains not shown): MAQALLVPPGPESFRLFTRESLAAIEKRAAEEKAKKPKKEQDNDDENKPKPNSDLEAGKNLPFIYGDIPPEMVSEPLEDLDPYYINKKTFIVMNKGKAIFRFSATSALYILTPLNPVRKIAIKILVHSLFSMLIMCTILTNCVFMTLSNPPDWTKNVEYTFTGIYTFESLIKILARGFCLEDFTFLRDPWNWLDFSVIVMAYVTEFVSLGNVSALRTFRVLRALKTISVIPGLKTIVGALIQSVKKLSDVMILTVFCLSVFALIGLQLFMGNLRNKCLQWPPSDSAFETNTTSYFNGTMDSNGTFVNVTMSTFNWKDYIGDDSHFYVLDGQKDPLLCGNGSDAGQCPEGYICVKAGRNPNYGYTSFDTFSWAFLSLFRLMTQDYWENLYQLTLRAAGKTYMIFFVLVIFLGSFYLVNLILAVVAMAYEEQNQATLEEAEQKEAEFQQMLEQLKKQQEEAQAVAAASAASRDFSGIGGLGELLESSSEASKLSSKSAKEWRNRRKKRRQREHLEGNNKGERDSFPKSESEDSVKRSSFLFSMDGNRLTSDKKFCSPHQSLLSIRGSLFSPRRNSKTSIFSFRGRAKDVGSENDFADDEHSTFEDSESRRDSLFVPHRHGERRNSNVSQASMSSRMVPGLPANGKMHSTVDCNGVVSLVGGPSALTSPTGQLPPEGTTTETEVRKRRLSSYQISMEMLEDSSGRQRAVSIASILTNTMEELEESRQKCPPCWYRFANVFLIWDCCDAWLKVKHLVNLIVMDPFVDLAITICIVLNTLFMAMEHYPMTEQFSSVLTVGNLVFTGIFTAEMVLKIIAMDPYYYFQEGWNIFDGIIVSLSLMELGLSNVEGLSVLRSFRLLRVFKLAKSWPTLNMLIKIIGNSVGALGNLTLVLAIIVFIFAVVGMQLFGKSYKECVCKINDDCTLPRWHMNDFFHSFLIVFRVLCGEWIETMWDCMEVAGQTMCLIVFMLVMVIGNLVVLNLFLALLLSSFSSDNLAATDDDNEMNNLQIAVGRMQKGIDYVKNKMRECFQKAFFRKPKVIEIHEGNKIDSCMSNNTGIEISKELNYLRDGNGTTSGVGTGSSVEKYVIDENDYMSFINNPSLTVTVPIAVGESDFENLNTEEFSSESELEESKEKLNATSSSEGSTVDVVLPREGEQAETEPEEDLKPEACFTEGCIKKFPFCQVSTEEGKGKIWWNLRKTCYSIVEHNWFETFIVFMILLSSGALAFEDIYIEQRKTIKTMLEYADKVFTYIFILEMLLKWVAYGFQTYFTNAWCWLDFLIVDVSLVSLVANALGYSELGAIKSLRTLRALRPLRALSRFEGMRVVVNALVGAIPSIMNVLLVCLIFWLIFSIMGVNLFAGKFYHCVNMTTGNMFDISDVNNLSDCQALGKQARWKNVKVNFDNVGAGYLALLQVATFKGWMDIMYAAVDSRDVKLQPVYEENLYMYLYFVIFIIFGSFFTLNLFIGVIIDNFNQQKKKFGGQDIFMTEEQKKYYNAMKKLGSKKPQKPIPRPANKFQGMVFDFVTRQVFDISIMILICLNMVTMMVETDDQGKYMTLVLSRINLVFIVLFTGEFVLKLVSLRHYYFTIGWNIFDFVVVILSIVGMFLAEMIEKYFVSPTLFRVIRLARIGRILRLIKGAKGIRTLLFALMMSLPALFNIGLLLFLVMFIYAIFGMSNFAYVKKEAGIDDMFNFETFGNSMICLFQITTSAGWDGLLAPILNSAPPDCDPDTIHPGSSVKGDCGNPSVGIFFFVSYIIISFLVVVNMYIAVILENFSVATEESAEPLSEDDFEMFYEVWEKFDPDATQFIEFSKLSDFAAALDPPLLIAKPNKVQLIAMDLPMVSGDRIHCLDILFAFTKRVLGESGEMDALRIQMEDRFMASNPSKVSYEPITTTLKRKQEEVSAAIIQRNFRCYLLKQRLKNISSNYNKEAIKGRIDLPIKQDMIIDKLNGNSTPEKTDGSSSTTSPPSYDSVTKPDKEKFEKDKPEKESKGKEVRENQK

As for `CCN(CC)CCNC(=O)c1ccc(N=[N+]=[N-])cc1`, the inhibition in assay [1] was 13.4%; in assay [2], 56.1%. Further, the IC50 in assay [3] came out at 65 µM.

On to `N=C1CCCCCCCCCCCN1C1CCCC1c1ccccc1` (stereo unspecified), for which the inhibition in assay [2] stood at 100%. In assay [3], this compound gave an IC50 of 0.8 µM.

`CC1CCCC[N+]1(C)CCCOC(=O)c1ccccc1.[I-]` (stereo unspecified): the values for the inhibition in assay [1] and in assay [2] were 9.6% and 31.4%, respectively. In addition, the IC50 in assay [3] turned out to be 360 µM.

Regarding `CCN(CC)CC(=O)Nc1c(C)cccc1C`, the inhibition was 9.8% in assay [1] and 31.4% in assay [2].

Take `CN1C(=O)CN=C(c2ccccc2)c2cc(Cl)ccc21`: the values for the inhibition in assay [1] and in assay [2] were 15.2% and 45.4%, respectively.

On to `COc1ccc(C2CNC(=O)C2)cc1OC1CCCC1` (stereo unspecified), for which the results for the inhibition in assay [1] and in assay [2] were 3.1% and 8.5%, respectively.

As to `Cc1cccc(C)c1NC(=O)C1CCCCN1C` (stereo unspecified), the inhibition worked out at 5.3% in assay [1] and 29.3% in assay [2].

Take `Nc1ccncc1`: the results for the inhibition in assay [1] and in assay [2] were 1.2% and 3.8%, respectively.

In the case of `CCCNC(C)C(=O)Nc1c(C)csc1C(=O)OC` (stereo unspecified) [ARTICAINE], the inhibition in assay [1] is 17.1%; in assay [2], 62.2%.

As for `CCOC(=O)c1ccc(N)cc1` [BENZOCAINE], the values for the inhibition in assay [1] and in assay [2] were 5.1% and 0%, respectively. Moreover, in assay [3], the IC50 was found to be 910 µM.

As to `CC(C)CNCCOC(=O)c1ccc(N)cc1` [BUTETHAMINE], the inhibition in assay [1] came to 12.3%; in assay [2], 63.2%. Further, the 50% inhibitory concentration (IC50) in assay [3] is 55 µM.

In assay [4], `C(=C\c1ccccc1)/CN1CCN(C(c2ccccc2)c2ccccc2)CC1` [CINNARIZINE] had an inhibition of 94.6%.

Turning to `COC(=O)[C@H]1[C@@H](OC(=O)c2ccccc2)C[C@@H]2CC[C@H]1N2C` [COCAINE], the inhibition worked out at 19.5% in assay [1] and 63.2% in assay [2]. The compound further came in with an IC50 in assay [3] of 49 µM.

As to `C=C[C@@]1(C)CC(=O)[C@]2(O)[C@@]3(C)[C@@H](O)CCC(C)(C)[C@@H]3[C@H](O)[C@H](OC(C)=O)[C@@]2(C)O1` [COLFORSIN], the inhibition in assay [2] stood at 62.8%. Further, in assay [3], the IC50 stood at 60 µM.

Compound `c1ccc2c(c1)OCC(CN1CCCCC1)O2` (stereo unspecified) [PIPEROXAN] came in with an inhibition in assay [2] of 58.8%. This compound also came in with an IC50 in assay [3] of 61 µM.

For `CCCCOc1ccc(OCCCN2CCOCC2)cc1` [PRAMOXINE], the inhibition in assay [1] is 29.7%; in assay [2], 86.3%. In addition, the IC50 in assay [3] was found to be 21.2 µM.

`CCCNC(C)C(=O)Nc1ccccc1C` (stereo unspecified) [PRILOCAINE]: the inhibition in assay [1] was 14.2%; in assay [2], 58.5%. The compound further showed a half-maximal inhibitory concentration (IC50) in assay [3] of 54 µM.

For the compound `COc1cc2c(cc1OC)C1CC(=O)C(CC(C)C)CN1CC2` (stereo unspecified) [TETRABENAZINE], the inhibition in assay [1] stood at 7%; in assay [2] it was 55%. The IC50 in assay [3] was determined as 85 µM.

As for `COc1ccc(CN(CCN(C)C)c2nccs2)cc1` [ZOLAMINE], the figures for the inhibition in assay [1] and in assay [2] were 35.9% and 82.4%, respectively. The compound further displayed an IC50 in assay [3] of 19.2 µM.
